Reference: patent US20250213478A1, “CATIONIC LIPID HAVING DISULFIDE BOND, LIPID MEMBRANE STRUCTURE INCLUDING SAME, NUCLEIC ACID INTRODUCTION AGENT AND PHARMACEUTICAL COMPOSITION CONTAINING ANY ONE OF SAME, METHOD FOR INTRODUCING NUCLEIC ACID INTO CELL OR TARGET CELL, AND METHOD FOR PRODUCING CELLULAR PHARMACEUTICAL” (NOF Corporation, priority 2022, published 2025)

Key:
[1] = test system: BALB/c mouse; test: Evaluation of in vivo gene expression (luciferase mRNA-encapsulating LNP, IVIS of isolated organs); conditions: for relative value based on Comparative Example (amount of luminescence in spleen): relative to O-Ph-P4C2 LNP = 1.00; for amount of luminescence in each organ: heart / amount of luminescence in each organ: kidney / amount of luminescence in each organ: liver / amount of luminescence in each organ: lung / amount of luminescence in each organ: spleen: tail vein, mRNA 0.05 mg/kg, 4.5 hr + 15 min after administration; for amount of luminescence in each organ: spleen: spleen (Table 7)
Experimental: LNP encapsulating mRNA that expresses luciferase (cationic lipid:DOPC:Chol:DMG-PEG2k=55:5:40:1 (molar ratio)) was prepared by the method described in [Experimental Example 2], 1.
The prepared each mRNA-encapsulating LNP dispersion was administered from the tail vein of BALB/c mouse (male, 5-week-old). The dose of mRNA was set to 0.05 mg per 1 kg body weight of the mouse, and the dose of the mRNA-encapsulating LNP dispersion was set to 10 μL per 1 g body weight of the mouse. After 4.5 hr from the administration of the mRNA-encapsulating LNP dispersion, a PBS solution of D-luciferin potassium was administered into the abdominal cavity of the mouse. The dose of D-luciferin potassium was set to 3 mg per mouse, and the dose of the PBS solution of D-luciferin potassium was set to 200 μL per mouse. After 15 min from the administration of the PBS solution of D-luciferin potassium, the mouse was euthanized, and the liver, spleen, kidney, heart, and lung were isolated. The luminescence in each organ was quantified using an in vivo imaging system (IVIS) with an exposure of 10 sec. The amount of luminescence in each organ was quantified by image analysis using Live Imaging software attached to IVIS. The amount of luminescence (photons/sec) was calculated from the acquired image and used as an index of gene expression activity. “E+0a” (a: integer) indicated in Table 7 and Table 8 means “10^a”. For example, “1.0E+02” means “1.0×10^2”. In Comparative Example, the cationic lipid described in the aforementioned Table 3 were used.

[2] = Particle size, PdI and zeta potential of mRNA-encapsulating LNPs (dynamic light scattering); format: physicochemical; conditions: mRNA-encapsulating LNP, cationic lipid:DOPC:Chol=55:5:40 + about 1 mol DMG-PEG2k; for PdI / particle size: dynamic light scattering; for zeta potential: physiological pH
Outline: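 LNPs were made from cationic lipid:DOPC:Chol at 55:5:40 molar ratio plus about 1 mol DMG-PEG2k, microfluidically mixed with mRNA in malate buffer (20 mM, pH 3.0, 30 mM NaCl). They were ultrafiltered into PBS at 2 mM lipid. Size, PdI and zeta potential were measured by dynamic light scattering.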

[3] = test system: HeLa cells; test: Evaluation of in vitro gene expression in HeLa cell (luciferase mRNA-encapsulating LNP); format: cell-based, human; conditions: for cumulative luciferase luminescence intensity over 24 hr: luciferase mRNA 0.4 μg per dish, LNP cationic lipid:DOPC:Chol:DMG-PEG2k=55:5:40:1; for gene expression activity compared to Comparative Example: result in words
Outline: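 LNP (cationic lipid:DOPC:Chol:DMG-PEG2k=55:5:40:1) carrying luciferase mRNA, 0.4 μg mRNA per 3.5 cm dish, added to HeLa cells in D-MEM with 0.1 mM D-luciferin. Luminescence read 2 min every hour in an incubator luminometer; value is cumulative luminescence over 24 hr.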

[4] = Measurement of Liposomal pKa of LNP (TNS fluorescence); format: physicochemical; conditions: LNP without nucleic acid, cationic lipid:DOPC:Chol=52.5:7.5:40 + about 1.5 mol DMG-PEG2k; pH at which relative TNS fluorescence intensity was 50%
Experimental: Lipid nanoparticles (LNP) without containing nucleic acid were used for the evaluation of Liposomal pKa.
A 10 mM ethanol solution of cationic lipid, a 5 mM ethanol solution of DOPC, and a 10 mM ethanol solution of Chol were mixed at desired ratio (cationic lipid:DOPC:Chol=52.5:7.5:40 (molar ratio)) in an Eppendorf tube to achieve the total lipid amount of 720 nmol. To the obtained mixture was further added DMG-PEG2k (2 mM ethanol solution) in an amount of about 1.5 mol with respect to the total amount 100 mol of cationic lipid, DOPC, and Chol, and then ethanol was added to prepare an ethanol solution of the lipid (total amount: 360 μL).
An acidic malic acid buffer (20 mM, pH 3.0) (1080 μL) containing NaCl at a final concentration of 30 mM and an ethanol solution (360 μL) of lipid were each weighed in a syringe. Using an ultra high-speed nanomedicament producing apparatus NanoAssmblr (manufactured by Precision NanoSystems), LNP was prepared under the conditions of addition rate of acidic buffer solution: 3 mL/min, addition rate of ethanol solution of lipid: 1 mL/min, and syringe holder temperature: 25° C., and collected in a 15 mL tube. MES buffer (pH 6.5) (3000 μL) was added to the 15 mL tube, the obtained mixture was transferred to Amicon Ultra 4, and ultrafiltration was performed under centrifugation conditions (25° C., 1000 g, 6 min) to concentrate the mixture to about 100 μL. The obtained concentrate was diluted with PBS to 4 mL, and the mixture was concentrated again under centrifugation conditions (25° C., 1000 g, 6 min), and this operation was performed twice. The obtained concentrate was diluted with PBS to a lipid concentration of 0.5 mM to give a dispersion containing LNP.
20 mM Citrate buffer, sodium phosphate buffer, and tris HCl buffer, each containing NaCl at a final concentration of 150 mM and adjusted to various pHs within the range of pH 3.0 to 10.0, were prepared. TNS (manufactured by Sigma) was diluted with ultrapure water to 0.6 mM. TNS solution (2 μL), dispersions (12 μL) containing LNP prepared in [Experimental Example 1], 1., and buffers adjusted to various pHs (186 μL) were added to a black 96 well plate. The plate was protected from light and shaken at 400 rpm for 10 min. The fluorescence intensity (excitation: 321 nm/emission: 447 nm) was measured using a plate reader (manufactured by TECAN). The relative fluorescence intensity was calculated as a percentage, with the maximum value of the fluorescence intensity in each LNP being 100% and the minimum value being 0%. Furthermore, the pH at which the relative fluorescence intensity was 50% was taken as Liposomal pKa. In Comparative Example, the cationic lipid described in the aforementioned Table 3 were used.

Compound | relative value based on Comparative Example (amount of luminescence in spleen) [1] | amount of luminescence in each organ: heart [1] | amount of luminescence in each organ: kidney [1] | amount of luminescence in each organ: liver [1] | amount of luminescence in each organ: lung [1] | amount of luminescence in each organ: spleen [1] | PdI [2] | particle size [2] | zeta potential [2] | cumulative luciferase luminescence intensity over 24 hr [3] | gene expression activity compared to Comparative Example [3] | pKa [4]
CCCCCCCCCCCCCCC(CCCCCCCCCCCCCC)C(=O)Oc1ccc(CC(=O)OCCSSCCOC(=O)CCCN(C)C)cc1 [Example 7] | 0.37 | 6.86E+05 photons/sec | 6.35E+05 photons/sec | 1.23E+06 photons/sec | 8.28E+05 photons/sec | 4.03E+06 photons/sec | 0.077 | 92 nm | 6.8 mV | 2.13E+08 RLU | superior gene expression activity | 7.8
CCCCCCCCCCCCCCCCC(CCCCCCCCCCCCCCCC)C(=O)Oc1ccc(CC(=O)OCCSSCCOC(=O)C(C)CN(C)C)cc1 (stereo not shown) [Example 13] | 0.19 | 1.00E+06 photons/sec | 8.00E+05 photons/sec | 5.00E+07 photons/sec | 8.67E+05 photons/sec | 2.00E+06 photons/sec | 0.086 | 94 nm | −10.2 mV | 1.44E+05 RLU |  | 6.3
CCCCCCCCCCCCCCCCC(CCCCCCCCCCCCCCCC)C(=O)Oc1ccc(CC(=O)OCCSSCCOC(=O)NCCN(C)C)cc1 [Example 21] | 0.05 | 3.41E+05 photons/sec | 5.83E+05 photons/sec | 3.68E+05 photons/sec | 6.51E+05 photons/sec | 5.86E+05 photons/sec | 0.118 | 116 nm | 6.4 mV | 1.22E+08 RLU | superior gene expression activity | 7.9
CCCCCCCCCCCCCCCCC(CCCCCCCCCCCCCCCC)C(=O)Oc1ccc(CC(=O)OCCSSCCOC(=O)NCCN(CC)CC)cc1 [Example 22] | 0.29 | 3.91E+05 photons/sec | 4.45E+05 photons/sec | 8.31E+06 photons/sec | 5.20E+05 photons/sec | 3.16E+06 photons/sec | 0.090 | 96 nm | 4.7 mV | 2.38E+08 RLU | superior gene expression activity | 7.5
CCCCCCCCCCCCCCCCC(CCCCCCCCCCCCCCCC)C(=O)Oc1ccc(CC(=O)OCCSSCCOC(=O)NCCCN(C)C)cc1 [Example 23] | 0.04 |  | 1.53E+05 photons/sec | 2.36E+05 photons/sec | 5.02E+05 photons/sec | 4.45E+05 photons/sec | 0.160 | 94 nm | 13.8 mV | 2.05E+07 RLU | superior gene expression activity | 8.3
CCCCCCCCCCCCCCCCC(CCCCCCCCCCCCCCCC)C(=O)Oc1ccc(CC(=O)OCCSSCCOC(=O)N(C)CCCN(C)C)cc1 [Example 24] | 0.05 | 4.78E+05 photons/sec | 4.84E+05 photons/sec | 5.08E+05 photons/sec | 5.58E+05 photons/sec | 5.09E+05 photons/sec | 0.109 | 96 nm | 12.2 mV | 6.22E+07 RLU | superior gene expression activity | 8.2
CCCCCCCCCCCCCCCCC(CCCCCCCCCCCCCCCC)C(=O)Oc1ccc(CC(=O)OCCSSCCOC(=O)NCCCCN(C)C)cc1 [Example 25] | 0.03 | 4.74E+05 photons/sec | 3.63E+05 photons/sec | 1.67E+05 photons/sec | 2.74E+05 photons/sec | 3.07E+05 photons/sec | 0.126 | 78 nm | 14.7 mV | 1.25E+07 RLU | superior gene expression activity | 8.6
